Tested on: skeletal muscle capillaries
Test: Microvascular perfusion viewed in real time through a dissecting microscope after topical application
Format: in vivo, mouse
Source text: Newborn mice pups were anesthetized after feeding to ensure a stomach filled with milk, for the purpose of providing optical contrast. […] Histamine, papaverine, or both, dissolved in PBS, were applied topically to the capillaries. Video recordings were made against a time line with an attached camera.

Row | Compound | effect on microvascular perfusion (10 millimolar) | effect on microvascular perfusion (300 micrograms per milliliter)
1 | NCCc1c[nH]cn1 [histamine] | rapidly induced vasodilation, and was followed within seconds by progressive capillary stasis | –
2 | COc1ccc(Cc2nccc3cc(OC)c(OC)cc23)cc1OC [papaverine] | – | capillary recruitment and increased local perfusion

— patent publication US6673039B1, “Compositions, kits, methods, and apparatus for transvascular delivery of a composition to an extravascular tissue of a mammal” (Trustees of the University of Pennsylvania, priority 1997, dated 2004)
